The values below come from patent publication US20140243403A1, “TREATING COLORECTAL, PANCREATIC, AND LUNG CANCER” (The General Hospital Corporation, priority 2011, published 2014).

The test system of experiment [1] is SK-CO-1 and SW620 (KRAS-dependent) xenografted tumors. The experiment can be described thus: Subcutaneous xenografted tumors, KRAS-dependent. Format: in vivo, NOD/SCID mice. Conditions: 15 mg/kg daily intraperitoneal, 6 days of treatment. The protocol:
(C) TAK1 inhibition in mice with xenografted human tumors derived from the HCT8/SW837 (KRAS-independent) and SK-CO-1/SW620 (KRAS-dependent) cell lines. Cells expressing firefly luciferase were injected subcutaneously into the flanks of […]. Tumors are shown as imaged by IVIS detection of luminescence counts (in photons/sec) following 14 days of tumor growth followed by 6 days of treatment with either 15 mg/kg 5z-7-oxozeaenol or vehicle ([…] in arachis oil), IP delivery q.d. Quantitation of tumor volume (mm^3) is plotted on the right. Tumor volume data are represented as the mean of 4 tumors in 2 mice for each group+/−SEM.
To validate the efficacy of 5Z-7-oxozeaenol in vivo, subcutaneous xenografted tumors were generated in NOD/SCID mice using four representative KRAS mutant cell lines: HCT8 and SW837 (KRAS-independent), and SK-CO-1 and SW620 (KRAS-dependent). Human colorectal cancer tumor cells were trypsinized and resuspended as single cell suspensions at 3×10^7 cells per ml in PBS. 100 μL (3×10^6 cells total) of this suspension were injected into opposite left and right flanks of NOD/SCID mice. All mice were housed in a pathogen-free environment. Tumor size was monitored daily and once tumor volume had reached approximately 200 mm^3, treatment with 5Z-7-oxozeaenol was initiated (7 to 14 days post-implantation). Mice were injected daily with 15 mg/kg 5Z-7-oxozeaenol. […]

The test system of experiment [2] is TOP-FLASH TCF4-responsive luciferase reporter. The experiment can be described thus: TOP-FLASH TCF4 luciferase reporter in colon cancer cell lines. Format: cell-based, human. From the text: (B) TOP-FLASH activity in KRAS-independent and KRAS-dependent cell lines following TAK1 inhibition with indicated concentrations (μM). Data are represented as means of triplicate experiments±SEM.
Since Wnt pathway enrichment was found in KRAS-dependent cells (FIG. 8C), the TAK1 dependency signature was overlapped with a dataset of binding sites for the Wnt-regulated transcription factor TCF4, derived from ChIP-on-Chip analyses (Hatzis et al., 2008). Of the 32 TAK1 dependency genes, 18 contained proximal TCF4 binding sites. A number of these genes, such as BAMBI, PROX1 and NAV2 (HELAD1) have been previously linked to colon tumorigenesis in the context of deregulated Wnt signaling (Lin et al., 2008; Petrova et al., 2008; Sekiya et al., 2004). Basal Wnt signaling activity was measured by TOP-FLASH TCF4-responsive luciferase assays. Cells were plated in 12-well tissue culture plates at a density of 5×10^4 cells/ml and 1 ml per well. Cells were then co-transfected with either 0.5 μg FOP-FLASH or TOP-FLASH plasmids plus 50 ng of pRL-TK (expressing Renilla luciferase). […]
To explore the role of KRAS and TAK1 in modulating Wnt signaling, the effect of KRAS depletion on β-catenin/TCF transcription was first assessed in a panel of KRAS mutant cell lines using the TOP-FLASH reporter (FIGS. 5A and 11A). […]

Bounds are passed on as bounds.

For orientation: IC50 means the point on the concentration scale where inhibition reaches its midpoint.

On to `COc1cc(O)c2c(c1)/C=C/C[C@H](O)[C@H](O)C(=O)/C=C\C[C@H](C)OC2=O` [5Z-7-oxozeaenol], for which the “tumor response (imaging, tumor volume)” value in experiment [1] is given as “remarkable regression”. Also, the IC50 in experiment [2] (KRAS-independent cells, 24 h treatment, read-out: IC50 for effect on TOP-FLASH activity) was above 10 µM. Moreover, the TOP-FLASH activity response result in experiment [2] (SW837 cells, increased at low doses, reduced at 5 μM) is recorded as “biphasic response”.
